The results in this text go back to patent US9682940B2, “Indazole derivatives useful as CB-1 inverse agonists” (Janssen Pharmaceutica NV, priority 2015, dated 2017).

For assay [1], the target named is Human CB1R (Cannabanoid receptor 1) (Homo sapiens (Human), UniProt P21554). The experiment in a line: CB-1 in vitro cAMP (HTRF) assay in HEK-293 cells. As to conditions: HEK-293 cells stably transfected with human CB1R, 250 nM Forskolin, mean where tested more than once, read-out: CB-1 (HEK_cAMP) EC50. The format is cell-based. From the text: (§1) CB1 and CB2 receptors are Gi-coupled GPCR. Activation of CB1 and CB2 receptors results in a decrease in cAMP production. An inverse agonist of the CB1 or CB2 receptor results in the opposite effect, an increase of cAMP production. The principle of this assay is based on HTRF® technology (Homogeneous Time-Resolved Fluorescence). The method is a competitive immunoassay between native cAMP produced by cells and the cAMP labeled with the fluorophore d2. The tracer binding is quantified by a Mab anti-cAMP labeled with Eu3+TBP-NHS Cryptate (supplied as part of the assay kit). The specific signal (i.e. energy transfer) is inversely proportional to the concentration of cAMP in the standard or sample.
Chain of Human CB1R (Cannabanoid receptor 1) (P21554 whole entry): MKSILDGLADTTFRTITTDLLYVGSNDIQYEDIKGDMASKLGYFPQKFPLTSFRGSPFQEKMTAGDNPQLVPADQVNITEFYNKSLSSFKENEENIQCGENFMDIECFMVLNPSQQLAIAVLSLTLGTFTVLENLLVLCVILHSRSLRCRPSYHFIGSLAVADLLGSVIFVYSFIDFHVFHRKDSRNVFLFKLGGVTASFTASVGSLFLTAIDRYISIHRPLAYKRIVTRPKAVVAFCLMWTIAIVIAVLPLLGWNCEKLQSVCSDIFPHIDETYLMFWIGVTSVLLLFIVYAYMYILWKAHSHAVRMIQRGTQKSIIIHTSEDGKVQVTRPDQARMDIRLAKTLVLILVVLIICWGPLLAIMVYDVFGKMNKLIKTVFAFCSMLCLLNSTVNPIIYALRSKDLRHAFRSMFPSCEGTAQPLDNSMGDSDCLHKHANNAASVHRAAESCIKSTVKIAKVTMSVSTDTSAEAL
(§2) Human CB1R (Cannabanoid receptor 1) was stably transfected in HEK-293 cells (DiscoveRx, cat: 93-0200C1). Human CB2R (Cannabanoid receptor 2) was stably transfected in HEK-293 cells (DiscoveRx, cat: 93-0201C1). Cell cultures were maintained in media: DMEM (Invitrogen Cat#12430-054) supplemented with 10% HI FBS (Invitrogen Cat#16140-071), 1% L-glutamine (Invitrogen Cat#25030-081), 0.2 mg/ml Hygromycin B (Invitrogen Cat#10687-010), 600 μg/mL G418 (Invitrogen Cat#10131-035), and 1× Penn/Strep (Invitrogen 15140-122). After cell expansion, aliquots were cryo-stored in media containing 5% DMSO (Pierce Cat#20684).
(§3) One day prior to experiments media was warmed to 37° C. and the cryo-stored cells were thawed in a 37° C. water bath. The cells were then added to media (10× volume) and the mixture was centrifugated at 1000 RPM for 5 min. The supernate was removed and the cells were re-suspended in media. A sample of the cell suspension was evaluated on a Cedex XS automated cell counter (Innovatis Systems) to determine viable cells/ml. Additional media was added to the cells to achieve a final cell density of 4E5 cells/mL. The cells were then plated into 384 well PDL white solid bottom plates (Greiner, Cat#781945) at 20 μL per well using a Multidrop (Thermo Scientific). Cells were removed from Row P (location of cAMP standards). Two columns of cells were plated into a clear bottom 384 well PDL coated plate (Greiner, Cat#781944) to view confluence the day of the assay. The cell plates were lidded and stored for 15 minutes in a hood, then transferred to an incubator (37° C., 5% CO2, 95% humidity) overnight.
(§4) DMSO was added to all wells of 384 well V bottom polystyrene plate (Greiner, Cat#781280) except to columns 1 and 13, rows O and P and wells M13-M23 and N13-N23. Test compounds (60 μL, 10 mM) were added to Column 1 and 13 (A1 through N1 and A13 through L13). Test compounds were serially diluted 1/3 by transferring and mixing 20 μl sample with 40 μL DMSO.
(§5) DMSO (40 μL) was added to wells of 384 well V bottom polystyrene plate: O2 through O11, M14 through M23, N14 through N23, and O14 through 023. AM630 (also known as [6-iodo-2-methyl-1-[2-(4-morpholinyl)ethyl]-1H-indol-3-yl](4-methoxyphenyl)-methanone, Cayman Chemical, Cat#10006974) (60 μL, 10 mM) was added to 01; and 1-(2,4-dichlorophenyl)-7-[(4-fluorophenyl)methylene]-4,5,6,7-tetrahydro-N-1-piperidinyl-1H-indazole-3-carboxamide (60 μL, 10 mM) was added to N13. The control was serially diluted 1/3 by transferring and mixing 20 μl sample with 40 μL DMSO. This process resulted 11 doses per control, 10 mM to […].
(§6) Cells plated the day prior to the assay in clear bottom plates were viewed on an inverse microscope to ensure confluency in the range of 60-75%. […]
(Time-resolved FRET reads energy transfer from a long-lived donor to a nearby acceptor.)

Assay [2] addresses Human CB2R (Cannabanoid receptor 2) (Homo sapiens (Human), UniProt P34972). The assay is described as follows: CB-2 in vitro cAMP (HTRF) assay in HEK-293 cells. The format is cell-based. To be noted: HEK-293 cells stably transfected with human CB2R, 250 nM Forskolin, mean where tested more than once, read-out: CB-2 (HEK_cAMP) EC50.
Description: as §1, §2, §3, §4, §5, §6

Molecules are shown by their SMILES.

Chain of Human CB2R (Cannabanoid receptor 2) (P34972 whole entry): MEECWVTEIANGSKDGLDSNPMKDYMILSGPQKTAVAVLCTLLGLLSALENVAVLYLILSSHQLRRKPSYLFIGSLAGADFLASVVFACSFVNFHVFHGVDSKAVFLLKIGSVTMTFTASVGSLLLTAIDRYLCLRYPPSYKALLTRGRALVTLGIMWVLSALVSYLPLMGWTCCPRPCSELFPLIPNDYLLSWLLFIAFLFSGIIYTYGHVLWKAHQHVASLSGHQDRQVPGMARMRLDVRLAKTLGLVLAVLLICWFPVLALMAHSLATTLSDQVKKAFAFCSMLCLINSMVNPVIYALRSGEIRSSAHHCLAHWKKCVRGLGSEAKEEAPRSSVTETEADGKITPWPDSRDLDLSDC

As to `NC(=O)Cn1nc(N2CCN(S(=O)(=O)C(F)(F)F)CC2)c2cc(C(c3ccc(Cl)cc3)c3ccc(Cl)cc3)ccc21` [Compound 19], the values for the EC50 in assay [1] and in assay [2] were 84 nM and above 10 µM, respectively.
For the molecule `COC(=O)Cn1nc(N2CCN(S(=O)(=O)C(F)(F)F)CC2)c2cc(C(c3ccc(Cl)cc3)c3ccc(Cl)cc3)ccc21` [Compound 20], the figures for the 50% effective concentration (EC50) in assay [1] and in assay [2] were 165 nM and above 10 µM, respectively.
With `CCOC(=O)CS(=O)(=O)N1CCC(c2n[nH]c3ccc(C(c4ccc(Cl)cc4)c4ccc(Cl)cc4)cc23)CC1` [Compound 21], the 50% effective concentration (EC50) is 170 nM in assay [1] and above 10 µM in assay [2].
The corresponding values for `O=C(O)CS(=O)(=O)N1CCC(c2n[nH]c3ccc(C(c4ccc(Cl)cc4)c4ccc(Cl)cc4)cc23)CC1` [Compound 22] are 249 nM and above 10 µM.
Taken in the same sequence, the figures for `NS(=O)(=O)N1CCC(c2n[nH]c3ccc(C(c4ccc(Cl)cc4)c4ccc(Cl)cc4)cc23)CC1` [Compound 23] were 2150 nM and above 10 µM.
In the case of `COC(=O)c1ccc(S(=O)(=O)N2CCC(c3n[nH]c4ccc(C(c5ccc(Cl)cc5)c5ccc(Cl)cc5)cc34)CC2)cc1` [Compound 24], the concentration for a half-maximal effect (EC50) is 151 nM in assay [1] and above 10 µM in assay [2].
As to `NC(=O)CS(=O)(=O)N1CCC(c2n[nH]c3ccc(C(c4ccc(Cl)cc4)c4ccc(Cl)cc4)cc23)CC1` [Compound 25], the concentration for a half-maximal effect (EC50) was 1230 nM in assay [1] and above 10 µM in assay [2].
For `O=S(=O)(N1CCN(c2n[nH]c3ccc(C(c4ccc(Cl)cc4)c4ccc(Cl)cc4)cc23)CC1)C(F)(F)F` [Compound 26], the EC50 was 5 nM in assay [1] and above 10 µM in assay [2].
Taken in the same sequence, the figures for `O=C(O)c1ccc(S(=O)(=O)N2CCC(c3n[nH]c4ccc(C(c5ccc(Cl)cc5)c5ccc(Cl)cc5)cc34)CC2)cc1` [Compound 27] were 410 nM and above 10 µM.
Taken in the same sequence, the figures for `NC(=O)c1ccc(S(=O)(=O)N2CCC(c3n[nH]c4ccc(C(c5ccc(Cl)cc5)c5ccc(Cl)cc5)cc34)CC2)cc1` [Compound 28] were 134 nM and above 10 µM.
In the case of `O=S(=O)(N1CCN(c2nn(S(=O)(=O)C(F)(F)F)c3ccc(C(c4ccc(Cl)cc4)c4ccc(Cl)cc4)cc23)CC1)C(F)(F)F` [Compound 29], the EC50 in assay [1] was 1490 nM; in assay [2], above 10 µM.
The corresponding values for `COC(=O)c1ccccc1S(=O)(=O)N1CCC(c2n[nH]c3ccc(C(c4ccc(Cl)cc4)c4ccc(Cl)cc4)cc23)CC1` [Compound 31] are 128 nM and 2.34 µM.
Taken in the same sequence, the figures for `O=S(=O)(c1ccc(C(F)(F)F)cc1)N1CCC(c2n[nH]c3ccc(C(c4ccc(Cl)cc4)c4ccc(Cl)cc4)cc23)CC1` [Compound 32] were 71 nM and above 10 µM.
As for `O=S(=O)(c1ccccc1C(F)(F)F)N1CCC(c2n[nH]c3ccc(C(c4ccc(Cl)cc4)c4ccc(Cl)cc4)cc23)CC1` [Compound 33], the figures for the EC50 in assay [1] and in assay [2] were 49 nM and above 10 µM, respectively.
With `O=C(O)c1ccccc1S(=O)(=O)N1CCC(c2n[nH]c3ccc(C(c4ccc(Cl)cc4)c4ccc(Cl)cc4)cc23)CC1` [Compound 34], the EC50 in assay [1] was 6030 nM; in assay [2] it was 7.5 µM.
Taken in the same sequence, the figures for `O=S(=O)(N1CCC(c2nn(-c3nccs3)c3ccc(C(c4ccc(Cl)cc4)c4ccc(Cl)cc4)cc23)CC1)C(F)(F)F` [Compound 37] were 8 nM and above 10 µM.
The corresponding values for `CC(C)(C)OC(=O)N1CCC(c2n[nH]c3ccc(C(c4ccc(Cl)cc4)c4ccc(Cl)cc4)cc23)CC1` [Compound 39] are 144 nM and above 10 µM.
Taken in the same sequence, the figures for `NC(=O)c1ccccc1S(=O)(=O)N1CCC(c2n[nH]c3ccc(C(c4ccc(Cl)cc4)c4ccc(Cl)cc4)cc23)CC1` [Compound 40] were 297 nM and 10.2 µM.
Regarding `O=C(O)CC(=O)N1CCC(c2n[nH]c3ccc(C(c4ccc(Cl)cc4)c4ccc(Cl)cc4)cc23)CC1` [Compound 41], the EC50 is 1650 nM in assay [1] and above 10 µM in assay [2].
The corresponding values for `O=S(=O)(N1CCN(c2nn(CCO)c3ccc(C(c4ccc(Cl)cc4)c4ccc(Cl)cc4)cc23)CC1)C(F)(F)F` [Compound 42] are 6 nM and above 10 µM.
In the case of `NC(=O)CCC(=O)N1CCC(c2n[nH]c3ccc(C(c4ccc(Cl)cc4)c4ccc(Cl)cc4)cc23)CC1` [Compound 43], the 50% effective concentration (EC50) in assay [1] was 169 nM; in assay [2], above 10 µM.
Taken in the same sequence, the figures for `CC(=O)n1nc(N2CCN(S(=O)(=O)C(F)(F)F)CC2)c2cc(C(c3ccc(Cl)cc3)c3ccc(Cl)cc3)ccc21` [Compound 44] were 14 nM and above 10 µM.
The corresponding values for `O=C(O)c1ccccc1Cn1nc(N2CCN(S(=O)(=O)C(F)(F)F)CC2)c2cc(C(c3ccc(Cl)cc3)c3ccc(Cl)cc3)ccc21` [Compound 45] are 941 nM and above 10 µM.
Taken in the same sequence, the figures for `O=S(=O)(N1CCC(c2nn(-c3ccc(C(F)(F)F)cc3)c3ccc(C(c4ccc(Cl)cc4)c4ccc(Cl)cc4)cc23)CC1)C(F)(F)F` [Compound 46] were 40 nM and above 10 µM.
As for `O=S(=O)(N1CCC(c2nn(-c3cccc(Cl)c3)c3ccc(C(c4ccc(Cl)cc4)c4ccc(Cl)cc4)cc23)CC1)C(F)(F)F` [Compound 47], the EC50 was 41 nM in assay [1] and above 10 µM in assay [2].
The corresponding values for `O=S(=O)(N1CCC(c2nn(-c3ccccc3Cl)c3ccc(C(c4ccc(Cl)cc4)c4ccc(Cl)cc4)cc23)CC1)C(F)(F)F` [Compound 48] are 31 nM and above 10 µM.
The corresponding values for `O=S(=O)(N1CCC(c2nn(-c3ccc(OC(F)(F)F)cc3)c3ccc(C(c4ccc(Cl)cc4)c4ccc(Cl)cc4)cc23)CC1)C(F)(F)F` [Compound 49] are 18 nM and above 10 µM.
The corresponding values for `O=S(=O)(N1CCC(c2nn(-c3ccc(F)cc3)c3ccc(C(c4ccc(F)cc4)c4ccc(Cl)cc4)cc23)CC1)C(F)(F)F` (centres unmarked) [Compound 50] are 59 nM and above 10 µM.
For the molecule `COC(=O)CC(=O)N1CCC(c2n[nH]c3ccc(C(c4ccc(Cl)cc4)c4ccc(Cl)cc4)cc23)CC1` [Compound 51], the EC50 in assay [1] was 152 nM; in assay [2] it was above 10 µM.
In the case of `O=C(O)COCCn1nc(N2CCN(S(=O)(=O)C(F)(F)F)CC2)c2cc(C(c3ccc(Cl)cc3)c3ccc(Cl)cc3)ccc21` [Compound 52], the EC50 was 499 nM in assay [1] and above 10 µM in assay [2].
`O=S(=O)(CC(F)(F)F)N1CCC(c2n[nH]c3ccc(C(c4ccc(Cl)cc4)c4ccc(Cl)cc4)cc23)CC1` [Compound 53]: the EC50 in assay [1] was 49 nM; in assay [2], above 10 µM.
Taken in the same sequence, the figures for `O=S(=O)(C1CC1)N1CCC(c2n[nH]c3ccc(C(c4ccc(Cl)cc4)c4ccc(Cl)cc4)cc23)CC1` [Compound 54] were 27 nM and above 10 µM.
Taken in the same sequence, the figures for `NC(=O)c1ccccc1Cn1nc(N2CCN(S(=O)(=O)C(F)(F)F)CC2)c2cc(C(c3ccc(Cl)cc3)c3ccc(Cl)cc3)ccc21` [Compound 55] were 649 nM and above 10 µM.
The corresponding values for `O=C(CC(F)(F)F)N1CCC(c2n[nH]c3ccc(C(c4ccc(Cl)cc4)c4ccc(Cl)cc4)cc23)CC1` [Compound 56] are 72 nM and above 10 µM.

In general, EC50 refers to the concentration giving half of the maximal effect.
